Results from patent publication US11896573B2, “Pharmaceutical compositions and pharmacokinetics of a gamma-hydroxybutyric acid derivative” (priority 2020, dated 2024).
“And” between values parts separate entries of the source, which are not always exact repeats. Equal entries are not always repeated. Where two headings read alike, the source gives them in different places.

What was measured:
[1] = Food effect and relative bioavailability crossover study, Compound (1) vs sodium oxybate; settings: 7.25 g Compound (1) oral; for AUC(0-inf) / AUC(0-t) / Cmax / half-life / Tmax: human, plasma, po, 7.25 g; for AUC(0-inf): Compound (1) plasma AUC0-inf; for Tmax: Compound (1) plasma Tmax
For Purity (Area %) in this document: time not given here.

Compound: CC(C)[C@H](N)C(=O)OCCCC(=O)O [Compound (1), 4-((L-valyl)oxy)butanoic acid]
- Purity (Area %) (pH 1.2): 99.25 Area % and 99.22 Area % and 98.95 Area %
- Purity (Area %) (pH 4.5): 99.25 Area % and 99.05 Area % and 98.35 Area %
- Purity (Area %) (pH 6.8): 99.08 Area % and 97.58 Area % and 93.14 Area %
- Purity (Area %) (pH 7.4): 98.84 Area % and 95.74 Area % and 87.89 Area %
- plasma Compound (1) AUC0-tlast, Adjusted Geometric Mean Ratio (Fed vs Fasted) [1]: 1.28
- plasma Compound (1) Cmax, Adjusted Geometric Mean Ratio (Fed vs Fasted) [1]: 0.65
- Compound (1) plasma AUC0-inf, Max ([1]; Fasted): 30800 ng·h/mL
- Compound (1) plasma AUC0-inf, Min ([1]; Fasted): 9500 ng·h/mL
- Compound (1) plasma AUC0-tlast, Max ([1]; Fasted): 36100 ng·h/mL
- Compound (1) plasma AUC0-tlast, Min ([1]; Fasted): 9400 ng·h/mL
- Compound (1) plasma Cmax, Max ([1]; Fasted): 43600 ng/mL
- Compound (1) plasma Cmax, Min ([1]; Fasted): 9400 ng/mL
- Compound (1) plasma T1/2, Max ([1]; Fasted): 114 min
- Compound (1) plasma T1/2, Min ([1]; Fasted): 16.2 min
- Compound (1) plasma AUC0-inf, Max ([1]; Fed): 39000 ng·h/mL
- Compound (1) plasma AUC0-inf, Min ([1]; Fed): 16000 ng·h/mL
- Compound (1) plasma AUC0-tlast, Max ([1]; Fed): 38600 ng·h/mL
- Compound (1) plasma AUC0-tlast, Min ([1]; Fed): 15900 ng·h/mL
- Compound (1) plasma Cmax, Max ([1]; Fed): 27800 ng/mL
- Compound (1) plasma Cmax, Min ([1]; Fed): 5500 ng/mL
- Compound (1) plasma T1/2, Max ([1]; Fed): 69 min
- Compound (1) plasma T1/2, Min ([1]; Fed): 16.2 min
- Compound (1) plasma Tmax, Max ([1]; Fed): 90 min
- AUC(0-inf) ([1]; Mean, Fasted): 22400 ng·h/mL
- AUC(0-inf) ([1]; Mean, Fed): 29000 ng·h/mL
- AUC(0-inf) ([1]; Median, Fasted): 20400 ng·h/mL
- AUC(0-inf) ([1]; Median, Fed): 29100 ng·h/mL
- AUC(0-t) ([1]; Compound (1) plasma AUC0-tlast, Mean, Fasted): 23900 ng·h/mL
- AUC(0-t) ([1]; Compound (1) plasma AUC0-tlast, Mean, Fed): 28800 ng·h/mL
- AUC(0-t) ([1]; Compound (1) plasma AUC0-tlast, Median, Fasted): 22500 ng·h/mL
- AUC(0-t) ([1]; Compound (1) plasma AUC0-tlast, Median, Fed): 29000 ng·h/mL
- Cmax ([1]; Compound (1) plasma Cmax, Mean, Fasted): 27700 ng/mL
- Cmax ([1]; Compound (1) plasma Cmax, Mean, Fed): 18100 ng/mL
- Cmax ([1]; Compound (1) plasma Cmax, Median, Fasted): 27300 ng/mL
- Cmax ([1]; Compound (1) plasma Cmax, Median, Fed): 17300 ng/mL
- half-life ([1]; Compound (1) plasma T1/2, Mean, Fasted): 32.4 min
- half-life ([1]; Compound (1) plasma T1/2, Mean, Fed): 38.4 min
- half-life ([1]; Compound (1) plasma T1/2, Median, Fasted): 21 min
- half-life ([1]; Compound (1) plasma T1/2, Median, Fed): 35.4 min
- Tmax ([1]; Median, Fasted): 45 min
- Tmax ([1]; Median, Fed): 30 min
- AUC(0-t) ([1]; plasma Compound (1) AUC0-tlast, Adjusted Geometric Mean, Fasted): 21000 ng·h/mL
- AUC(0-t) ([1]; plasma Compound (1) AUC0-tlast, Adjusted Geometric Mean, Fed): 27000 ng·h/mL
- Cmax ([1]; plasma Compound (1) Cmax, Adjusted Geometric Mean, Fasted): 25400 ng/mL
- Cmax ([1]; plasma Compound (1) Cmax, Adjusted Geometric Mean, Fed): 16500 ng/mL
